Reference: patent US20250017878A1 (Chronic Airway Therapeutics Limited, priority 2021, published 2025)

Columns and labels:
[1] = tested on: asthmatic mice; experiment: Decrease in airway resistance (Raw) by period of administration, Example 8 / Table 2; type: in vivo
Method: (§1) The periods of administration of the agents are 15 minutes, 2 days, and 28 days. […] This strongly supports the concept of combination therapy, such as with an inverse agonist and an agonist.

[2] = tested on: asthmatic mice (ovalbumin-sensitized and ovalbumin-challenged); experiment: Airway responsiveness to methacholine (airway resistance Raw, forced oscillation) in murine model of asthma, Example 1; type: in vivo, Balb/cJ mice; conditions: for airway responsiveness to methacholine provocation (Raw), chronic treatment: drug delivered for 28 days (chow or osmotic minipump); for airway responsiveness to methacholine provocation (Raw), acute treatment: single intravenous bolus 15 minutes before methacholine
Method: The results obtained in drug-treated animals were compared with those obtained in vehicle-treated counterparts (controls) in experiments performed in close temporal relationship. […] Mice were sensitized with subcutaneous injection of 25 μg of ovalbumin adsorbed to aluminum hydroxide on protocol days 2, 9, and 16. Subsequently, mice were given 50 μL of saline solution containing 25 μg of ovalbumin intranasally, on a daily basis, from protocol days 23 through 27. A group of ovalbumin-sensitized saline-challenged mice serves as controls for systemic sensitization and respiratory challenges with ovalbumin. Prior to intranasal administrations, mice were sedated with halothane vapor. For the study of Example 1, ovalbumin-sensitized and ovalbumin-challenged mice, and ovalbumin-sensitized and saline-challenged mice will be referred to as asthmatic mice and control mice, respectively. […] To examine the effects of duration of β-adrenergic ligand therapy on the phenotype of the murine model of asthma, the experimental drugs were administered either acutely or chronically to different groups of asthmatic mice. […] These concentrations were chosen based on those producing therapeutic effects in mice in previously published studies. The non-asthmatic mice were fed normal chow. Salbutamol was delivered for 28 days at a dose of 0.5 mg/kg/day using an osmotic minipump (Alzet®, #2004, Durect Corporation, Cupertino, CA). […] Airway resistance (Raw) was measured using the forced oscillation technique. The cellular composition of bronchoalveolar lavage fluid (BALF) was also determined. […] However, it was observed that the degree of airway responsiveness and the number of eosinophils recovered in BALF were lower in non-treated asthmatic mice studied in close temporal relationship with mice receiving acute β-adrenergic antagonist treatments that in those obtained in non-treated asthmatic mice studied concomitantly with mice on chronic β-adrenergic antagonist therapy. […] The complex input impedance of the respiratory system was computed and the value of the real part of respiratory system impedance at 19.75 Hz was taken to reflect the magnitude of airway resistance (Raw). To examine the degree of airway responsiveness of each animal, the values for Raw as a function of methacholine doses were plotted. The largest value for Raw achieved in response to methacholine stimulation was referred to as […]. For mice that achieved a plateau in the methacholine dose-Raw response curve, the ED50 was calculated by linear interpolation using the GraphPad Prism4 (GraphPad Software, Inc.). Results obtained for β-adrenergic drug-treated and non-treated mice were performed using the analysis of variance for multiple groups of a Student's t-test for comparing two groups. The Bonferroni test was used to examine the statistical differences between experimental groups. The effects of acute drug treatments on baseline respiratory system mechanics were assessed using a two-tailed paired t-test. A value of P<0.05 was considered significant.

[3] = tested on: β2-adrenergic receptor; experiment: Determination of β-adrenergic receptor density by radioligand (ICYP) binding in lung membranes of treated asthmatic mice, Example 2; type: in vivo; conditions: for change of the level of the β2-adrenergic receptor, in words: chronic treatment; for Apparent KD (of radioligand ICYP) / Bmax (β-adrenergic receptor density) / βmax (β-adrenergic receptor density): lung membranes; for Apparent KD (of radioligand ICYP): KD of ICYP binding, not of the drug; for Bmax (β-adrenergic receptor density) / βmax (β-adrenergic receptor density): mean ± SEM, n=3-5
Method: β2-adrenergic receptor numbers were measured in asthmatic mice as follows. […] Mice were sacrificed and lung membranes were isolated as follows. Frozen lung tissue was homogenized in an ice-cold buffer containing 0.32 M sucrose and 25 mM Tris (pH 7.4) using a polytron (Pro 200, Pro Scientific, Inc.). The homogenate was centrifuged at 1000×g for 10 min at 4° C. The resulting supernatant was centrifuged at 40,000×g for 20 min at 4° C. The pellet was suspended in an ice-cold 25 mM Tris-HCl buffer (pH 7.4) and centrifuged at 40,000×g for 20 min at 4° C. The final pellet was suspended in 200 μL of 25 mM Tris-HCl (pH 7.4); membrane protein concentration was determined by BCA protein assay kit. […] The incubation was done at 37° C. for 2 h and terminated by rapid vacuum filtration through glass fiber filters. The filters were washed three times with 250 μL of cold wash buffer (25 mM Tris-HCl, pH 7.4) and the radioactivity determined in a counter. […] Receptor densities are expressed as femtomoles of sites per milligram of protein. Bmax is determined by nonlinear regression of the saturation binding curves. […] Please note that the 15-minute and 28-day time points refer to duration of drug treatment.

[4] = tested on: β-arrestin pathway; experiment: Blockade of the β-arrestin pathway, Example 16 / FIG. 16; type: cell-based
[5] = tested on: mucous metaplasia in sensitized/challenged mice; experiment: Mucous metaplasia in sensitized/challenged mice (photomicrographs), Example 10; type: in vivo; conditions: sensitized/challenged mice after treatment
[6] = molecular target: β2-adrenergic receptor (Mus musculus, UniProt P18762); experiment: Upregulation of β2-adrenergic receptor density by period of administration, Example 8 / Table 2; type: in vivo, mice; set-up: from tissue
Sequence of β2-adrenergic receptor (Mus musculus, UniProt P18762) (P18762 whole entry): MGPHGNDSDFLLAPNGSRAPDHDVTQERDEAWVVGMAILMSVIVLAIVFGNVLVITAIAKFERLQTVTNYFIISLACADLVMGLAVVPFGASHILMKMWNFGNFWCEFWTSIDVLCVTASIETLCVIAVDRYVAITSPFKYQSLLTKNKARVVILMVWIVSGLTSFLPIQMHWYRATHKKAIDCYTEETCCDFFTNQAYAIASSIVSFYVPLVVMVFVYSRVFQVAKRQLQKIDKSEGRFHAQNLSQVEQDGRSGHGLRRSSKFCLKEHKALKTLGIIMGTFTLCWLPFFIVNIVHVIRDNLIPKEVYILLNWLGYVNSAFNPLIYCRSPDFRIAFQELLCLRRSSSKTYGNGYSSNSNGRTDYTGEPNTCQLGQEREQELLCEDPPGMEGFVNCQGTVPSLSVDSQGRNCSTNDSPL
Method: as §1

[7] = tested on: asthmatic mice; experiment: β-adrenergic receptor drugs at low and high doses on airway resistance, Example 7; type: in vivo; conditions: chronic administration in chow, high and low dose
Method: For these experiments, salbutamol was used for chronic administration at 0.5 mg/kg/day with a minipump and for acute administration at 0.15 mg/kg by i.v. bolus 15 minutes prior to challenge. […] Carvedilol was used at a high dose of 2400 ppm in chow or at a low dose of 720 ppm in chow. […] In these diagrams, Ctrl=control mice, non-asthmatic, non-drug treated; NTX=asthmatic mice, non-drug treated; AC=acute administration; 2d=chronic administration for 2 days; 28d=chronic administration for 28 days. The airway resistance (Raw) is plotted as cm H2O ml^−1 s.

[8] = tested on: asthmatic mice (ovalbumin-sensitized, challenged); experiment: Combination of carvedilol and salbutamol on airway hyperresponsiveness, Example 4; conditions: 28 days treatment; highest dose of methacholine
Method: Mice (Balb/cJ) aged 6 weeks were housed under specific pathogen-free conditions and fed a chicken ovalbumin-free diet. Mice were systemically sensitized with ovalbumin adsorbed to aluminum hydroxide.
To induce airway constriction, a solution containing 150 μg/mL of methacholine was infused using a syringe infusion pump. […] Each methacholine dose was administered until a plateau was reached, during which data were sampled at 1-minute intervals for 3-5 minutes and then averaged.

[9] = cited from earlier work
[10] = cited from earlier work; remark: listed apart in the source
[11] = tested on: asthmatic mice; experiment: Chronic treatment with metoprolol and timolol on airway responsiveness in asthmatic mice, Example 9; type: in vivo; conditions: 7 days; metoprolol 20 mg/kg 3× daily s.c., timolol 20 mg/kg in chow; methacholine challenge
Method: Airway resistance (Raw) was measured as in Example 1. The results were compared to historical controls as shown in FIG. 9B: Ctrl, no drug treatment, no challenge with methacholine; NTX, no drug treatment, challenged with methacholine.

Structure (SMILES)	Decreased Raw ([1]; 15 minutes administration)	Decreased Raw ([1]; 2 days administration)	Decreased Raw ([1]; 28 days administration)	airway responsiveness to methacholine provocation (Raw), chronic treatment [2]	airway responsiveness to methacholine provocation (Raw), acute treatment [2]	Apparent KD (of radioligand ICYP) ([3]; drug treatment 15 Minutes)	Bmax (β-adrenergic receptor density) ([3]; drug treatment 15 Minutes)	Apparent KD (of radioligand ICYP) ([3]; drug treatment 28 Days)	βmax (β-adrenergic receptor density) ([3]; drug treatment 28 Days)	block of the β-arrestin pathway [4]	Increased β2AR density ([6]; 15 minutes administration)	Increased β2AR density ([6]; 2 days administration)	Increased β2AR density ([6]; 28 days administration)	further results
C=CCc1ccccc1OCC(O)CNC(C)C (stereo not drawn) [Alprenolol, alprenolol]	yes	no	no	provides no benefit upon chronic administration	airway responsiveness was diminished	(453.6 ± 86.33) pM	299.5 ± 12.19 femtomoles of sites per milligram of protein	(290.9 ± 55.07) pM	179.2 ± 53.05 femtomoles of sites per milligram of protein	did not block the β-arrestin pathway	yes	no	no	change of the level of the β2-adrenergic receptor, in words [3]: slight decrease of the level of the 2-adrenergic receptor; mucous metaplasia [5]: no improvement in mucous metaplasia
COc1ccccc1OCCNCC(O)COc1cccc2[nH]c3ccccc3c12 (stereo not drawn) [Carvedilol, carvedilol]	no	no	yes	reduced the responsiveness of asthmatic mice to methacholine provocation	enhanced the airway responsiveness in the asthmatic mice	(565.2 ± 192.8) pM	86.3 ± 19.42 femtomoles of sites per milligram of protein	(1444.0 ± 202.0) pM	904.1 ± 43.46 femtomoles of sites per milligram of protein	did not block the β-arrestin pathway	no	no	yes	protection from airway hyperresponsiveness [7]: providing protection from airway hyperresponsiveness with chronic administration; increase of the level of β2-adrenergic receptors over the non-treated mice ([3]; chronic administration, versus untreated methacholine-challenged asthmatic mice): over 10 fold; bronchoconstriction / airway hyperresponsiveness to allergen and methacholine challenge [8]: higher bronchoconstriction than these treatments but less than the non-drug treated sensitized and challenged (NTX S/C) mice
CC(C)(C)NCC(O)c1ccc(O)c(CO)c1 (stereo not drawn) [Salbutamol, salbutamol]	yes	no	no	no protection was observed	reduced the level of airway responsiveness to methacholine provocation and the level of airway resistance	(228.8 ± 33.07) pM	256.5 ± 29.24 femtomoles of sites per milligram of protein	(225.4 ± 41.79) pM	97.0 ± 23.02 femtomoles of sites per milligram of protein		yes	no	no	bioavailability of inhaled drug ([9]; 10 patients with cystic fibrosis versus healthy adults): greater than that in healthy adults; change of the level of the β2-adrenergic receptor, in words [3]: slight decrease
CCCC1O[C@@H]2C[C@H]3[C@@H]4CCC5=CC(=O)C=C[C@]5(C)[C@H]4[C@@H](O)C[C@]3(C)[C@]2(C(=O)CO)O1 (stereo partly drawn) [budesonide]														plasma clearance of the two enantiomers per kilogram bodyweight, children with asthma higher than healthy adults ([10]; 6 children with asthma versus 11 healthy adults): about 50%; elimination half-life ([10]; in vivo): 2.8 ± 1.1 h; plasma clearance ([10]; in vivo): 84 ± 27 L/h; plasma clearance relative to average clearance of prednisolone ([10]; in vivo): about 10 fold; systemic availability of the swallowed fraction ([10]; in vivo): 10.7±4.3%
C[C@@H]1C[C@H]2[C@@H]3C[C@H](F)C4=CC(=O)C=C[C@]4(C)[C@@]3(F)[C@@H](O)C[C@]2(C)[C@@]1(O)C(=O)SCF [fluticasone]														first-pass hepatic metabolism of the systemically absorbed drug ([10]; inhaled drug): almost complete
COCCc1ccc(OCC(O)CNC(C)C)cc1 (stereo not drawn) [metoprolol]														airway hyperresponsiveness after chronic treatment [11]: effective in reducing airway hyperresponsiveness in asthmatic mice
CC(C)NCC(O)COc1cccc2ccccc12 (stereo not drawn) [propranolol]										did not block the β-arrestin pathway				
OCc1cc(C(O)CNCCCCCCOCCCCc2ccccc2)ccc1O (stereo not drawn) [salmeterol]														time in which the majority of a dose is eliminated in the feces ([9]; in vivo): ≤ 72 h
CC(C)(C)NCC(O)c1cc(O)cc(O)c1 (stereo not drawn) [terbutaline]														increase of bioavailability by the oral component ([9]; from an MDI): 6.7%; absorption through the lung ([9]; healthy smokers versus healthy nonsmokers): more rapidly in healthy smokers than in healthy nonsmokers
CC(C)(C)NC[C@H](O)COc1nsnc1N1CCOCC1 [timolol]														airway hyperresponsiveness after chronic treatment [11]: effective in reducing airway hyperresponsiveness in asthmatic mice
